The values that follow come from patent US20070015813A1, “Treatment of protein folding disorders” (QUEEN'S UNIVERSITY AT KINGSTON, priority 2005, published 2007).

In assay [1] the target is T1, Aβ1-40 (Homo sapiens, UniProt P05067).
T1 construct: Aβ^1-40 (AnaSpec, San Jose, Calif., lots 14212, 34862 and 34889); purchased AnaSpec, San Jose, Calif
Description: Kinetic Thioflavin T (ThT) aggregation assay of Aβ1-40. It is filed as biochemical. The conditions noted are these: 20 μM Aβ1-40, 4 μM ThT, pH 7.4, 37° C., kinetic ThT assay. As for the experimental part: Aβ^1-40 (1.0 mg) was pre-treated in a 1.5 mL microfuge tube with 1,1,1,3,3,3-hexafluoroisopropanol (HFIP, 1 mL) and sonicated for 20 min. to disassemble any pre-formed Aβ aggregates. The HFIP was removed with a stream of argon and the Aβ dissolved in Tris base (5.8 mL, 20 mM, pH 10.5). The pH was adjusted to 7.4 with concentrated HCl and the solution filtered using a syringe filter (0.2 μm). This solution was used for circular dichroism studies or diluted with an equal volume of 8 μM Thioflavin T (ThT) in Tris-HCl (20 mM, pH 7.4, 300 mM NaCl) for the ThT aggregation assay.
Aliquots (200 μL) of Aβ^1-40, Aβ^1-42, tau441 or α-synuclein with ThT or ThS were added to wells of a black polystyrene 96-well plate, followed by 2 μL of a compound in DMSO (various concentrations), or DMSO alone (controls). For α-synuclein, sodium dodecyl sulfate solution (2.0 μL, 30 mM) was also added to each well to induce aggregation. Incubations were performed in triplicate and were taken to contain 20 μM Aβ^1-40 or Aβ^1-42, 6 μM tau441 or 4 μM α-synuclein. Plates were covered with clear polystyrene lids and incubated at 37° C. in a GENios microplate reader obtained from Tecan Group Limited, Mannedorf, Zurich. For Aβ^1-40, tau441 and α-synuclein, fluorescence readings (λex=450 nm, λem=480 nm) were taken every 15 min., after first shaking at high intensity for 15 sec. and allowing to settle for 10 sec. before each reading. For Aβ^1-42, readings were taken every 5 min.
The absorbance of each compound was measured under the conditions used during testing, though on ten times the scale (2 mL), to ensure no significant quenching interfered with the assay. This step was also used to identify whether compounds were completely soluble under testing conditions.
FIG. 1 depicts the inhibition of Aβ^1-40 aggregation, as measured by Thioflavin T (ThT) fluorescence, by directly-linked 3,3′-bis-indolyl compounds 0c-i (A), other bis-indoles (B), aza-indole-containing compounds (C), indole-phenols (D), indole-5-carboxylic acid-containing bi-aromatics (E), and naphthol-containing bi-aromatics (F). Aggregation conditions: 20 μM Aβ^1-40 incubated in covered black 96-well polystyrene microplates with 4 μM ThT, pH 7.4, Tris-HCl (20 mM), 150 mM NaCl, 1% DMSO. Compound concentrations are 200 μM (A,B, except where otherwise noted), 100 μM (E), 20 μM (F), or as indicated (C,D). Plates heated at 37° C. in Tecan Genios microplate reader. All incubations performed in triplicate. Prior to experiment, Aβ^1-40 pretreated with 1,1,1,3,3,3-hexafluoroisopropanol (HFIP). Fluorescence readings: fluorescence measured every 15 min. (λex=450 nm, λem=480 nm) after shaking for 15 sec. and pausing 10 sec. before taking measurement. Values are the mean of three replicates. Error bars, omitted for clarity in (B), represent standard deviation of the mean.

Assay [2] has as its target T1, Aβ1-40. Kind of assay: Aβ1-40 disaggregation assay. The conditions noted are these: compound added after incubating at 37° C. for 46 hrs., ThT fluorescence. It is filed as biochemical. The procedure:
Aβ^1-40 was allowed to aggregate under conditions described in Thioflavin T Aggregation Assay except that no DMSO was added initially. After 46 hrs., compound in DMSO or vehicle was added (2 μL) and the fluorescence measured every 15 min. as detailed above. […] FIG. 3 depicts dose-response curves for inhibition of Aβ^1-40 aggregation by 0j and positive control, morin. FIG. 4 depicts the inhibition of Aβ^1-40 aggregation by 0c in “seeded” ThT assay. FIG. 5 depicts disaggregation of Aβ^1-40 by 0c and positive control, morin. After incubating at 37° C. for 46 hrs. 0c, morin or vehicle were added as DMSO solutions (1:100) and the fluorescence measured every 15 min.

T1 sequence (P05067 672-711 limits assumed): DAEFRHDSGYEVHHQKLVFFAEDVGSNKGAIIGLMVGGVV

Regarding `O=C(O)c1ccc2[nH]cc(-c3c[nH]c4ccc(Br)cc34)c2c1` [0c, 3-(5-bromo-indol-3-yl)-indole-5-carboxylic Acid], the “inhibition of Aβ1-40 aggregation, as measured by Thioflavin T (ThT) fluorescence” value at Aβ1-40 [1] is on record as “dose-response effect”. The “disaggregation of Aβ1-40” value on Aβ1-40 [2] was “disaggregation”.

For the molecule `O=c1c(O)c(-c2ccc(O)cc2O)oc2cc(O)cc(O)c12` [morin], the “inhibition of Aβ1-40 aggregation, as measured by Thioflavin T (ThT) fluorescence” value on Aβ1-40 [1] is “inhibition”. Also, the “disaggregation of Aβ1-40” value on Aβ1-40 [2] was “disaggregation”.
